Measured values reported in US4107298A, “Antigenically active polypeptide and a process for its preparation” (AB Bonnierforetagen, priority 1976, dated 1978).
No end group written: not given here.

Tested on: antibodies specific to TPA (prepared by using natural cancer antigen, CAPA or TPA)
Test: hemagglutination inhibition test
Type: binding
Conditions: for immunological activity after coupling to inert albumin: coupled to inert bovine albumin, molar ratio about 1:1, by water soluble carbodiimide (EDC)
Text: The polypeptide prepared according to the foregoing was investigated with regard to its ability to inhibit the hemagglutination reaction between tanned red sheep blood cells labelled with natural cancer antigen and antibodies prepared by using natural cancer antigen (CAPA or TPA). With regard to details concerning this technique reference is had to the above-identified Swedish patent application 73-08917-9 and U.S. Pat. No. 3,960,827. […] Said Unit for specific activity is defined as 1/6 of the quantity active polypeptide required to label 10^9 sheep blood cells so as to be fully agglutinated by a minimum number or amount of antibodies (maximum dilution of antibodies).
In Example 1 as described above the antigenic activity of the synthesized polypeptide was determined in the following manner.
For quantitative determination of the amount of polypeptide 7 mgs of the peptide are dissolved in 1.4 mls of buffer grade serum, i.e. a physiological saline solution containing 2% of inert human serum and buffered to a pH of about 7.5 with a phosphate buffer. Under serial dilution a series of samples of said solution having a decreasing polypeptide concentration is prepared and to each of said samples there is added a pre-determined amount of anti-serum containing antibodies specific to TPA. To each of the resulting samples there is then added, after incubation, a predetermined amount of the polypeptide carried on a particulate carrier, hemagglutination taking place to an extent corresponding to the amount of available antibodies. In parallel there is prepared a corresponding series of control samples containing known decreasing amounts of TPA. The diameters of the hemagglutination depositions of the control samples are then measured in their respective cavities on a serial dilution test plate, and the values of the diameters obtained are plotted against the TPA concentrations, an S-shaped curve being obtained, the intermediate part of which including an inflexion point as a steep inclination. The corresponding curve of the diameter of the depositions from the hemagglutination as a function of the TPA-concentrations is shown in the diagram of the appended drawing, as curve B.
In the same diagram the corresponding curve for the synthesized polypeptide is shown as A, and with knowledge of the specific activity of the TPA the specific activity of the synthesized polypeptide is found to be 0.024 Units per milligram of peptide.

ALLNDILAQYLDLVRALEAANGRLEV [Example 25]
immunological activity compared with the polypeptide of Example 1: about equally immunologically active

AQYLDLVRALEAANGELEV [Example 3, Ala Gln Tyr Leu Asp Leu Val Arg Ala Leu Glu Ala Ala Asn Gly Glu Leu Glu Val]
immunological activity compared with the polypeptide of Example 1: about equally immunologically active | immunological activity after coupling to inert albumin: maintained

TDLDDRLAKYLDKVRALEAADGELEV [Example 2]
immunological activity compared with the polypeptide of Example 1: about equally immunologically active

LNDELAQYLDLVRALEAANGRLEV [Example 4]
immunological activity compared with the polypeptide of Example 1: about equally immunologically active | immunological activity after coupling to inert albumin: maintained

NDILAQYLDLVRALEAANG [Example 5, Asn Asp Ile Leu Ala Gln Tyr Leu Asp Leu Val Arg Ala Leu Glu Ala Ala Asn Gly]
immunological activity compared with the polypeptide of Example 1: about equally immunologically active

DDRLAKYLDKVRALEAADG [Example 6, Asp Asp Arg Leu Ala Lys Tyr Leu Asp Lys Val Arg Ala Leu Glu Ala Ala Asp Gly]
immunological activity compared with the polypeptide of Example 1: about equally immunologically active

ALLNDELAQYLDLVRALEAANGQLEV [Example 1]
activity lowered (basic environment only, pH 13, same period of time, no cyclohexanedione): about 20% | loss of activity (centrally positioned arginine A0 blocked with cyclohexanedione at pH 13): 99.5% | specific activity (inhibition of hemagglutination between tanned red sheep blood cells labelled with natural cancer antigen and anti-TPA antibodies, compared with the TPA control curve): 0.024 U/mg | activity disappears (treated with iodine at pH 9.5, 100 times excess): 40-50% | activity lost (treated with iodine at pH 9.5, 1000 times excess): about 75% | activity lost (treated with iodine at pH 9.5, excess of about 10000 times in relation to tyrosine content): about 85% | activity of the polypeptide (treated with iodine at pH 9.5, excess of only about 10 times): not effected
